This is an account of results in patent US11236106B2, “Cycloalkane-1,3-diamine derivative” (Daiichi Sankyo Company, Limited, priority 2018, dated 2022).

The structures appear in SMILES notation. Where a name gives a salt, the structure may show the parent alone.

The term IC50 denotes the concentration that inhibits the measured activity by half. Lower therefore signals higher potency.

The target in the first assay is T1, menin and MLL (menin, Flag tagged; biotinylated MLL1 peptide 1-46aa) (Homo sapiens, UniProt O00255).
T1 sequence (O00255 1-610): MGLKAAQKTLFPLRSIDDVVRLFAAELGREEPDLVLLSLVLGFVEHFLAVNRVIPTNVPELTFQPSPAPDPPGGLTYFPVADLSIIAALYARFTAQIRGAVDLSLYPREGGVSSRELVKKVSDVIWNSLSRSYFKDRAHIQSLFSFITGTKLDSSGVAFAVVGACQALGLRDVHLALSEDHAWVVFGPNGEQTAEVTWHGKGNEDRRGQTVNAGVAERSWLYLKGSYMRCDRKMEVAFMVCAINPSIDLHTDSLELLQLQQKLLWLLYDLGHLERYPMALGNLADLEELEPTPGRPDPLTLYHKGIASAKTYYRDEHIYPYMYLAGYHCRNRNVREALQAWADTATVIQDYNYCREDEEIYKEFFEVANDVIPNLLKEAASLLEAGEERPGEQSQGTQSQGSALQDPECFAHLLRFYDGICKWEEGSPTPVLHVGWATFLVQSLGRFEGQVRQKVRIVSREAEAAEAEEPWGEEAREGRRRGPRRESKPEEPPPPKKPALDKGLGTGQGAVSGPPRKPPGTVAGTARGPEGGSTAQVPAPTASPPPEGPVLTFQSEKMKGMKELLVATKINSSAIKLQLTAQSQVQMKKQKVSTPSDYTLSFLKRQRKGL
The assay can be described thus: biochemical.
Details: not given
On to `CN(c1ncnc2sc(CC(F)(F)F)cc12)[C@H]1C[C@@H](NCc2ccc(-n3cnc4ccccc43)cc2)C[C@H]1O` [Example 79, (1R,2S,4R)-4-({[4-(1H-benzimidazol-yl)phenyl]methyl}amino)-2-{methyl[6-(2,2,2-trifluoroethyl)thieno[2,3-d]pyrimidin-4-yl]amino}cyclopentan-1-ol hydrochloride], for which the IC50 is 3.5 nM.

Staying with this assay, now noted: IC50, binding inhibitory activity between menin and MLL, AlphaLISA; 1 nM menin, 10 nM biotinylated MLL1 peptide.
`CNc1nc(N(C)[C@H]2C[C@@H](NCc3ccc(-c4cnc(OC)c(OC)c4)cc3)C[C@H]2O)c2cc(CC(F)(F)F)sc2n1` [Example 73, (1R,2S,4R)-4-({[4-(5,6-dimethoxypyridin-3-yl)phenyl]methyl}amino)-2-{methyl[2-(methylamino)-6-(2,2,2-trifluoroethyl)thieno[2,3-d]pyrimidin-4-yl]amino}cyclopentan-1-ol hydrochloride] displayed a half-maximal inhibitory concentration (IC50) of 6.5 nM.
`CNc1ncc(-c2ccc(CN[C@H]3C[C@@H](O)[C@@H](N(C)c4ncnc5sc(CC(F)(F)F)cc45)C3)cc2)cc1OC` [Example 92, (1R,2S,4R)-4-[({4-[5-methoxy-6-(methylamino)pyridin-3-yl]phenyl}methyl)amino]-2-{methyl[6-(2,2,2-trifluoroethyl)thieno[2,3-d]pyrimidin-4-yl]amino}cyclopentan-1-ol hydrochloride] gave an IC50 of 1.5 nM.
On the same count and under the same terms, in the case of `CNc1nc(N(C)[C@H]2C[C@@H](NCc3ccc(-c4cc(F)c(F)c(OC)c4)cc3)C[C@H]2O)c2cc(CC(F)(F)F)sc2n1` [Example 82, (1R,2S,4R)-4-{[(3′,4′-difluoro-5′-methoxy[1,1′-biphenyl]-4-yl)methyl]amino}-2-{methyl[2-(methylamino)-6-(2,2,2-trifluoroethyl)thieno[2,3-d]pyrimidin-4-yl]amino}cyclopentan-1-ol hydrochloride] it was 22.8 nM.
`COc1ncc(-c2ccc(CN[C@H]3CC[C@@H](N(C)c4ncnc5sc(CC(F)(F)F)cc45)C3)cc2)s1` [Example 130, (1R,3S)—N^3-{[4-(2-methoxy-1,3-thiazol-5-yl)phenyl]methyl}-N^1-methyl-N^1-[6-(2,2,2-trifluoroethyl)thieno[2,3-d]pyrimidin-4-yl]cyclopentane-1,3-diamine Hydrochloride]: the IC50 came out at 6.5 nM.
The molecule `COc1cc(-c2ccc(CN[C@H]3C[C@@H](O)[C@@H](N(C)c4ncnc5sc(CC(F)(F)F)cc45)C3)cc2)nnc1N(C)C` [Example 98, (1R,2S,4R)-4-[({4-[6-(dimethylamino)-5-methoxypyridazin-3-yl]phenyl}methyl)amino]-2-{methyl[6-(2,2,2-trifluoroethyl)thieno[2,3-d]pyrimidin-4-yl]amino}cyclopentan-1-ol hydrochloride] displayed an IC50 of 1.9 nM.

The same assay, now with this note: cell free IC50 (nM), 1 nM menin, 10 nM biotinylated MLL1 peptide, AlphaLISA.
The molecule `CN(c1nc(N)nc2sc(CC(F)(F)F)cc12)[C@H]1C[C@@H](NCc2ccc(-n3ccnc3)cc2)C[C@H]1O` [Example 21, (1R,2S,4R)-2-{[2-amino-6-(2,2,2-trifluoroethyl)thieno[2,3-d]pyrimidin-4-yl](methyl)amino}-4-({[4-(1H-imidazol-1-yl)phenyl]methyl}amino)cyclopentan-1-ol Hydrochloride] came in with an IC50 of 7 nM.
`FC(F)(F)Cc1cc2c(N[C@@H]3CCC[C@H](NCc4ccc(-c5nnc[nH]5)cc4)C3)ncnc2s1` [Example 37, (1S,3R)-N^1-{[4-(4H-1,2,4-triazol-3-yl)phenyl]methyl}-N^3-[6-(2,2,2-trifluoroethyl)thieno[2,3-d]pyrimidin-4-yl]cyclohexane-1,3-diamine hydrochloride] yielded a half-inhibitory concentration (IC50) of 701 nM.
The same measure, in the same setting: in the case of `COc1cncc(-c2ccc(CN[C@@H]3C[C@H](N(C)c4ncnc5sc(CC(F)(F)F)cc45)[C@H](O)[C@@H]3O)cc2)c1` [Example 20A, (1S,2R,3R,5S)-3-({[4-(5-methoxypyridin-3-yl)phenyl]methyl}amino)-5-{methyl[6-(2,2,2-trifluoroethyl)thieno[2,3-d]pyrimidin-4-yl]amino}cyclopentane-1,2-diol Hydrochloride] it was 3.9 nM; in that of `COc1cncc(-c2ccc(CN[C@@H]3C[C@H](Nc4ncnc5sc(CC(F)(F)F)cc45)C[C@H](C(=O)N(C)C)C3)cc2)c1` (single isomer, unassigned) [Example 17B, Hydrochloride], 13.3 nM.
In turn, `COc1cncc(-c2ccc(CN[C@H]3C[C@@H](Nc4ncnc5sc(CC(F)(F)F)cc45)C[C@@H](C(=O)N(C)C)C3)cc2)c1` (single isomer, unassigned) [Example 17A, Hydrochloride] displayed an IC50 of 2260 nM.
`CN(c1ncnc2sc(CC(F)(F)F)nc12)[C@@H]1CC[C@H](NCc2ccc3[nH]c(C#N)cc3c2)C1` [Example 3, 5-({[(1S,3R)-3-{methyl[2-(2,2,2-trifluoroethyl)[1,3]thiazolo[5,4-d]pyrimidin-7-yl]amino}cyclopentyl]amino}methyl)-1H-indole-2-carbonitrile Hydrochloride] gave a concentration for half-maximal inhibition (IC50) of 81.8 nM.
`COCc1cc2c(N(C)[C@@H]3CC[C@H](NCc4ccc(-c5cncc(OC)c5)cc4)C3)ncnc2s1` [Example 47, (1R,3S)-N^1-[6-(methoxymethyl)thieno[2,3-d]pyrimidin-4-yl]-N^3-{[4-(5-methoxypyridin-3-yl)phenyl]methyl}-N^1-methylcyclopentane-1,3-diamine hydrochloride]: the half-inhibitory concentration (IC50) amounted to 97.2 nM.
As to `CN(c1ncnc2ccc(CC(F)(F)F)cc12)[C@@H]1CC[C@H](NCc2ccc(O)cc2)C1` [Example 5, 4-({[(1S,3R)-3-{methyl[6-(2,2,2-trifluoroethyl)quinazolin-4-yl]amino}cyclopentyl]amino}methyl)phenol Hydrochloride], the concentration for half-maximal inhibition (IC50) was determined as 856 nM.
`C=CC(=O)Nc1cccc(Nc2ccc(CN[C@H]3CC[C@@H](N(C)c4nc(NC)nc5sc(CC(F)(F)F)cc45)C3)cc2)c1` [Example 55, N-{3-[4-({[(1S,3R)-3{methyl[2-(methylamino)-6-(2,2,2-trifluoroethyl)thieno[2,3-d]pyrimidin-4-yl]amino}cyclopentyl]amino}methyl)anilino]phenyl}prop-2-enamide hydrochloride] yielded a concentration for half-maximal inhibition (IC50) of 9.8 nM.
Turning to `COc1cncc(-c2ccc(CN[C@@H]3C[C@H](N(C)c4ncnc5sc(CC(F)(F)F)cc45)C[C@@H]3O)cc2)c1` [Example 51, (1S,2R,4S)-2-({[4(5methoxypyridin-3-yl)phenyl]methyl}amino)-4-{methyl[6-(2,2,2-trilluoroethyl)thieno[2,3-d]pyrimidin-4-yl]amino}cyclopentan-1-ol hydrochloride], the concentration for half-maximal inhibition (IC50) came to 10.1 nM.
Still for that read-out and setting: in the case of `FC(F)(F)Cc1cc2c(N[C@@H]3CCC[C@H](NCc4ccc(-c5ncco5)cc4)C3)ncnc2s1` [Example 35, (1S,3R)-N^1-{[4-(1,3-oxazol-2-yl)phenyl]methyl}-N^3-[6-(2,2,2-trifluoroethyl)thieno[2,3-d]pyrimidin-4-yl]cyclohexane-1,3-diamine hydrochloride] it was 1220 nM.
The molecule `COc1cncc(-c2ccc(CN[C@H]3CC[C@@H](N(C)c4ncnc5sc(C6COC6)cc45)C3)cc2)c1` [Example 48, (1R,3S)-N^3-{[4-(5-methoxypyridin-3-yl)phenyl]methyl}-N^1-methyl-N^1-[6-(oxetan-3-yl)thieno[2,3-d]pyrixnidin-4-yl]cyclopentane-1,3-diamine hydrochloride] gave an IC50 of 1420 nM.
Molecule `CNc1nc(N(C)[C@H]2C[C@@H](NCc3ccc(-c4cnc(OC)c(OC)c4)cc3)C[C@@H]2OC)c2cc(CC(F)(F)F)sc2n1` [Example 24, N^4-[(1S,2S,4R)-4-({[4-(5,6-dimethoxypyridin-3-yl)phenyl]methyl}amino)-2-methoxycyclopentyl]-N^2,N^4-dimethyl-6-(2,2,2-trifluoroethyl)thieno[2,3-d]pyrimidine-2,4-diamine Hydrochloride] showed a half-maximal inhibitory concentration (IC50) of 4.1 nM.
On the same count and under the same terms, in the case of `Cc1ncc(-c2ccc(CN[C@H]3CC[C@@H](N(C)c4ncnc5sc(CC(F)(F)F)cc45)C3)cc2)cc1OC(F)F` [Example 58, (1R,3S)-N^3-({4-[5-(difluoromethoxy)-6-methylpyridin-3-yl]phenyl}methyl)-N^1-methyl-N^1-[6-(2,2,2-trifluoroethyl)thieno[2,3-d]pyrimidin-4-yl]cyclopentane-1,3-diamine hydrochloride] it was 15.2 nM; in that of `CN(c1ncnc2sc(CC(F)(F)F)cc12)[C@@H]1CC[C@H](NCc2ccc(N3CCc4ccccc43)cc2)C1` [Example 56, (1R,3S)-N^3-{[4-(2)-3-dihydro-1H-indol-1-yl)phenyl]methyl}-N^1-methyl-N^1-[6-(2,2,2-trifluoroethyl)thieno[2,3-d]pyrimidin-4-yl]cyclopentane-1,3-diamine hydrochloride], 43.6 nM; in that of `COc1cncc(-c2ccc(CN[C@H]3CC[C@@H](N(C)c4ncnc5sc(C6CC6)cc45)C3)cc2)c1` [Example 45, (1R,3S)-N^1-(6-cyclopropylthieno[2,3-d]pyrimidin-4-yl)-N^3-{[4-(5-methoxypyridin-3-yl)phenyl]methyl}-N^1-methylcyclopentane-1,3-diamine hydrochloride], 33.3 nM.
